From patent US11877996B1 (priority 2023, dated 2024) come the findings set out here.

Data set [1] relates to human cell lines (HEK293, THP-1, macrophage, HepG2, Caco-2).
Data set [2] has the same test system. Description: Stability in culture media and human cell lysates (arsenic speciation by HPLC-ICP-MS). Particulars: 100 μM AST, 48 h, five human cell lines.
A further data set deals with T1, human GS-II (hGS-II) (Homo sapiens, UniProt P15104).
T1 construct: purchased BioVision Inc
Description: Glutamine synthetase assay (Glutamine/Glutamate-GLO), human GS-II. Particulars: 1 μM AST, 1 μM hGS-II, 30 min. Type of data set: biochemical. On the procedure: (§1) The activity and inhibition profiles of purified MBP-fused PfGS-I or human GS-II (hGS-II) (BioVision Inc., Milpitas, CA, USA) in the presence or absence of AST were estimated from glutamine production using Glutamine/Glutamate-GLO™ Assay Kit (Promega, Madison, WI). The assay mixture (50 mM imidazole-HCl buffer (pH 7.0), 7.6 mM ATP, 50 mM magnesium chloride, 50 mM ammonium chloride) with or without the indicated concentration of GS enzyme was preincubated in the presence or absence of the indicated concentrations of AST for 15 min at room temperature. The reaction was initiated by addition of L-glutamate at 0.1 mM, final concentration. The reaction mixtures were incubated at 37° C. with shaking at 300 rpm for indicated time. The reactions were terminated by chilling the reaction mixture in ice water and filtered with 30 kDa Amicon Ultra centrifugal filters at 4° C. Glutamate concentrations in the filtered samples were determined using Glutamine/Glutamate-GLO™ Assay as instructed in the kit's manual, from which glutamine concentrations were estimated by subtracting the glutamate concentrations from the initial concentrations (0.1 mM). The half maximal effective concentration (EC50) of AST for PfGS-I was calculated using Sigma Plot (Systat Software, Inc., Sun Jose, CA).

The target of data set [3] is T2, PfGS-I (P. falciparum glutamine synthetase, MBP-fused) (Plasmodium falciparum, UniProt W7JM41).
T2 sequence (W7JM41 1-544): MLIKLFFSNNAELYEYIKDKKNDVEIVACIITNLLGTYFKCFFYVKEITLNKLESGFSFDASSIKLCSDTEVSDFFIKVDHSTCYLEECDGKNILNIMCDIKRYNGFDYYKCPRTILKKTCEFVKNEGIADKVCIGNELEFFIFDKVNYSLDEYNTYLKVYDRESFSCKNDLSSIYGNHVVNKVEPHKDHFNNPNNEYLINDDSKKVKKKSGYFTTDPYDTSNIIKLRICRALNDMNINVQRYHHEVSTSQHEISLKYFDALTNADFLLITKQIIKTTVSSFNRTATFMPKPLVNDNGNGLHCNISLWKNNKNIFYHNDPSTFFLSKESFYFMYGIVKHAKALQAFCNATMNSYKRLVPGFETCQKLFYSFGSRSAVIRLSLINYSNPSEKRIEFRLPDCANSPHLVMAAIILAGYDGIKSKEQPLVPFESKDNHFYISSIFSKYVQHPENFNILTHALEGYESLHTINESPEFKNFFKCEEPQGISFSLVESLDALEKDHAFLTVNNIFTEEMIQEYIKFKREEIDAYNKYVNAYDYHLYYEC
The data set can be described thus: Glutamine synthetase assay (Glutamine/Glutamate-GLO), PfGS-I. Type of data set: biochemical. As for the experimental part: as §1

The test system of data set [4] is human cell lines (HEK293, THP-1, macrophage, HepG2, Caco-2). The data set can be described thus: MTT cytotoxicity assay, five human cell lines overall. For orientation: Formazan colour is commonly taken as a measure of viable cells.
The test system of data set [5] is sexual-stage P. falciparum transmission to Anopheles gambiae. Description: Transmission-blocking standard membrane feeding assay (SMFA), oocysts in An. gambiae midguts. Type of data set: in vivo, Plasmodium falciparum. As for the experimental part: P. falciparum (NF54) was cultured in the complete RPMI-1640 containing 4% new O+ human red blood cells, 10% human AB+ serum, and 12.5 μg/ml of hypoxanthine in a candle jar at 37° C. Standard membrane feeding assays (SMFA) were used to examine the efficacy of AST. In brief, 10 ml of day-15 cultured P. falciparum containing ˜2% stage V gametocytes in a 15 ml centrifuge tube was centrifuged at 650×g for 5 min at RT. After the supernatant was removed, the cells were re-suspended in 1 ml of pre-warmed human AB− serum (37° C.), to which 1 ml of O+ hematocrit was added. […] The unfed mosquitoes were removed, and the engorged mosquitoes were maintained with 10% sugar in the insectary. Seven days post-infection, the midguts were dissected and stained with 0.1% mercury dibromofluorescein salt in PBS for 30 minutes. The number of oocysts was counted under a 10× light microscope.

Data set [6] deals with asexual-stage P. falciparum. The data set can be described thus: Antimalarial activity on the asexual stage of P. falciparum (parasitemia in infected red blood cells). In kind it is cell-based, Plasmodium falciparum. As for the experimental part: 3-5-day cultured P. falciparum-infected red blood cells (iRBCs) were mixed with fresh human RBCs (AB+ type) in complete RPMI 1640 to prepare cultures with 0.5% parasitemia and 2% hematocrit. AST was dissolved in DMSO. […] The plate was incubated in a candle jar at 37° C. Approximately 48 h later, the medium was replaced with fresh medium containing the same concentration of AST. Parasitemia was recorded on day 4 post-incubation.

The test system of data set [7] is macrophage-like cells differentiated from THP-1.
For data set [8], the system named is Anopheles gambiae mosquitoes. Description: Mosquito mortality observed in SMFA (insecticidal activity). Type of data set: in vivo. The settings on record: 0.1 to 3 μM in blood meal. As for the experimental part:
P. falciparum (NF54) was cultured in the complete RPMI-1640 containing 4% new O+ human red blood cells, 10% human AB+ serum, and 12.5 μg/ml of hypoxanthine in a candle jar at 37° C. Standard membrane feeding assays (SMFA) were used to examine the efficacy of AST. In brief, 10 ml of day-15 cultured P. falciparum containing ˜2% stage V gametocytes in a 15 ml centrifuge tube was centrifuged at 650×g for 5 min at RT. After the supernatant was removed, the cells were re-suspended in 1 ml of pre-warmed human AB− serum (37° C.), to which 1 ml of O+ hematocrit was added. 300 μl of the resulting infected blood were mixed with 2 μl of AST at different concentrations, yielding a final concentration of 0, 0.1, 0.3, 1, or 3 μM, which was fed a hundred 3-5-day-old female mosquitoes for 30 minutes. The unfed mosquitoes were removed, and the engorged mosquitoes were maintained with 10% sugar in the insectary. Seven days post-infection, the midguts were dissected and stained with 0.1% mercury dibromofluorescein salt in PBS for 30 minutes. The number of oocysts was counted under a 10× light microscope.

“Also recorded” adds a separate entry of the source.

T1 sequence (P15104 whole entry): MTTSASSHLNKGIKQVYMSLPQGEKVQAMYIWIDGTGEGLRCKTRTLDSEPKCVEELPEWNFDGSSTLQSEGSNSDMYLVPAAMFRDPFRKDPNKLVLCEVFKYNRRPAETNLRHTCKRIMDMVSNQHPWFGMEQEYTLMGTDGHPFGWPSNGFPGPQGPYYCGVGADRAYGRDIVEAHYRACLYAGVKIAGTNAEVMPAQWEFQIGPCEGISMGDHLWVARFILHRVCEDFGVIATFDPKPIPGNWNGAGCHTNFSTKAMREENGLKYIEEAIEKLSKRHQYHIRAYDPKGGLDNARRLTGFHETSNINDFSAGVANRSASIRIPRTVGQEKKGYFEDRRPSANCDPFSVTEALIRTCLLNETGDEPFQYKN

As for `C[As](=O)(O)CC[C@H](N)C(=O)O` [AST, 2-amino-4-(hydroxymethylarsinoyl)butanoate], in data set [1], the “permeability (total arsenic levels in cells)” value is “permeable to cytomembrane”. In [1], the “permeability to HepG2 cells” value is on record as “moderately permeable”. Besides, the CC50 in the data set with HEK293 cells is above 250 µM; in the data set with THP-1 cells, above 250 µM; in the data set with HepG2 cells it was above 250 µM; in data set [7], above 250 µM; in the data set on Caco-2 cells, 150 to 200 µM. Also, in data set [2], the “arsenic species in culture media and cell lysates (stability)” value is listed as “almost exclusively AST”. Moreover, the “effect on hGS-II activity” value on human GS-II (hGS-II) is reported as “did not significantly reduce; also recorded: little effect”. The EC50 was 0.4 µM in data set [3] (0.5 μM PfGS-I, 2 hours, read-out: EC50 for PfGS-I inhibition); 0.34 µM in data set [5] (SMFA, An. gambiae, oocysts day 7 post-infection, read-out: EC50 in blocking transmission of sexual-stage P. falciparum to mosquitos (50% of oocysts per mosquito vs control)); 13.9 µM in data set [6] (infected human blood, 0.5% parasitemia, 2% hematocrit, day 4, read-out: EC50 in inhibiting asexual-stage P. falciparum (50% of parasitemia rate vs AST-free control)). For the same compound, the “reduction of PfGS-I activity” value in data set [3] (1 μM AST) was “more than 60%”. The “activity of PfGS-I compared with the control without AST treatment” value in data set [3] (1 μM AST, 1 μM PfGS-I, 30 min) is “less than 40%”. In addition, the “inhibition of PfGS-I activity” value in [3] (AST at 100 μM) is “completely inhibits”. In addition, the “effect on viability of the tested human cell lines” value in data set [4] (AST at 100 μM, most of the tested cell lines) is reported as “little effect”. Moreover, the “times less cytotoxic than As(III)” value in data set [4] (ratio of LC50 values, human cell lines) was above 10 times. Moreover, in data set [5] (3 μM, SMFA, oocysts day 7), the “inhibition of P. falciparum transmission to An. gambiae compared to PT and MSO” value is given as “significantly inhibits”. The “inhibition of malaria transmission” value in data set [5] (3 μM, SMFA, oocysts day 7) is reported as “completely inhibited”. Further, in data set [5] (AST at 100 μM), the “inhibition of transmission to mosquitoes” value was “completely inhibits”. The “inhibition of P. falciparum proliferation in blood” value in [6] (AST at 100 μM) is recorded as “completely inhibits”. Moreover, the “dead mosquitoes (insecticidal activity)” value in data set [8] was “no dead mosquitoes were observed”.

What is called CC50 is the concentration at which the toxic effect on the cells reaches its halfway point. What is called EC50 is the midpoint of the concentration-response curve.
